In publication PMC6592620 (Biochemistry, 2018):

Target: phiYFP (yellow fluorescent protein from the jellyfish Phialidium sp.) (Phialidium sp. SL-2003, UniProt Q6RYS7)
Test: fluorescence titration, single site binding model

Kd: 50 ± 2 mM
Compound: I [iodide]
